The subject of series [1] is RS4-11. Kind of series: Antiproliferative activity against human RS4-11 cells assessed as inhibition of cell growth. In kind it is functional, cell-based.
Series [2] concerns MV4-11. Description: Antiproliferative activity against human MV4-11 cells assessed as inhibition of cell growth. The class given is functional, cell-based.
Series [3] deals with G-401. Kind of series: Antitumor activity against human G-401 cells xenografted in female CAnN.Cg-Foxn1nu/CrlCrljFoxn1nu/Foxn1nu mouse assessed as suppression of tumor growth at 50 mg/kg, po qd for 12 days. The class given is functional, organism-based. The conditions noted are these: time 12.0 day.
The subject of series [4] is NCI-N87. Description: Antitumor activity against human NCI-N87 cells xenografted in female CAnN.Cg-Foxn1nu/CrlCrljFoxn1nu/Foxn1nu mouse assessed as tumor regression at 50 mg/kg, po qd for 28 days. The conditions noted are these: time 28.0 day. In kind it is functional, organism-based.
The test system of series [5] is NCI-N87. Kind of series: Antitumor activity against human NCI-N87 cells xenografted in female CAnN.Cg-Foxn1nu/CrlCrljFoxn1nu/Foxn1nu mouse assessed as tumor regression at 50 mg/kg, po qd for 28 days and measured for 40 days after drug dosing cessation. In kind it is functional, organism-based. The settings on record: time 28.0 day.
Series [6] concerns KARPAS-422. Description: Antitumor activity against human KARPAS-422 cells xenografted in FOX CHASE SCID C.B.17/Icr-scid/scid Jc1 mouse assessed as inhibition of tumor growth administered orally BID for 16 days. The settings on record: dose lower 40.0 mg/kg, dose upper […], route po, time 16.0 day. In kind it is functional.
Series [7] relates to KARPAS-422. Kind of series: Antitumor activity against human KARPAS-422 cells xenografted in FOX CHASE SCID C.B.17/Icr-scid/scid Jc1 mouse assessed as inhibition of tumor growth at 160 mg/kg, po BID for 16 days. The class given is functional, organism-based. The settings on record: time 16.0 day.
Series [8] relates to Mus musculus. Kind of series: In vivo inhibition of EZH1/2 in FOX CHASE SCID C.B.17/Icr-scid/scid Jc1 mouse xenografted with human KARPAS-422 cells assessed as decrease in H3K27me3 level in tumor at 40 to 160 mg/kg, po BID for 16 days and measured 1 day after cessation of drug dosing. In kind it is functional, organism-based. The settings on record: dose lower 40.0 mg/kg, dose upper […], time 16.0 day.

The nature of series [9]: Cmax in BALB/c mouse at 40 mg/kg administered as single dose. In kind it is ADME, organism-based. The settings on record: in vivo, route po.
Series [10] is described as follows: AUC (0 to 24 hrs) in BALB/c mouse at 40 mg/kg administered as single dose. The settings on record: in vivo, route po. In kind it is ADME, organism-based.

The source made the active and inactive calls. The rule behind the calls is not given here.

Take `CCCc1cc(C)[nH]c(=O)c1CNC(=O)c1cc(-c2ccc(N3CCN(C(C)C)CC3)nc2)cc2c1cnn2C(C)C`: the EC50 in series [1] amounted to 1960 nM; in [2] it was 525 nM.
On to `Cc1cc(C)c(CNC(=O)c2cc(Br)c3c(c2C)OC(C)(C2CCC(N(C)C)CC2)O3)c(=O)[nH]1` (stereo not given), for which the outcome in series [3] and in series [5] was Active. In series [4], the outcome was inactive.
For `CCN1CCN(c2ccc(-c3cc(C(=O)NCc4c(C)cc(C)[nH]c4=O)c(C)c4c3O[C@](C)(CN3CCOCC3)O4)cn2)CC1`, in [6], the Activity result was “Dose-Dependent Effect”. The outcome in series [7] was Active. In series [8], the inhibition result is “Active”. The peak level in series [9] (Cmax) was 6 µM. The same molecule returned an AUC(0-t) in series [10] of 45 µM·h.

(Values after ChEMBL document CHEMBL5647694, “Novel orally bioavailable EZH1/2 dual inhibitors with greater antitumor efficacy than an EZH2 selective inhibitor” (Cancer Sci, 2017).)
